Drawing on a melting point compilation (Tetko et al.; mined from patent text by program, amines drawn as free bases though some values may be those of a salt), this text covers melting point for 87 compounds.

`COc1ccc(Cc2ncc(CN3CCN(c4ccccc4OC)CC3)c3cc(OC)c(OC)cc23)cc1OC`: the melting point was 117 to 119 °C. The figure for `Cc1ccc(S(=O)(=O)C(CC(=O)C(C)(C)C)c2ccc(Cl)cc2)cc1` (configuration not stated) is 170 to 171 °C; for `O=C1NC(N2CCCCCC2)=N/C1=C\c1c[nH]c2ncc(-c3ccccc3)cc12` it is 302 °C.

`NC(CC(=O)O)c1ccc(OC(F)(F)F)cc1` (configuration not stated) came in with a melting point of 258 to 260 °C. Turning to `CCOC(=O)C1=C(N)NC2=C(C(=O)CCC2)C1c1ccccc1Br` (configuration not stated), the melting point amounted to 245 °C. Compound `Clc1ccc(Oc2cc(Br)c(Cl)cc2OCc2ccccc2)c(Cl)c1` came in with a melting point of 86 to 88 °C. The figure for `CCOC(=O)N(N)C(=O)c1cc(Cl)ccc1O` is 172 °C; for `COC(=O)C(C)c1ccc2cc(OC(=O)CO)ccc2c1` (configuration not stated) it is 49.5 to 52 °C; for `CC1(CCN)OCCc2c1[nH]c1ccccc21` (configuration not stated) it is 80 to 84 °C. The result for `COc1ccccc1CN[C@H]1CCCN(CCCCCCCc2ccccc2)[C@H]1c1ccccc1` (relative stereo) reads 67 to 77 °C.

As to `Cc1cc(-n2cccn2)c2cccc(OCc3c(Cl)ccc(S(=O)(=O)N4CCC[C@H]4C(=O)NCC4CCN(CCCO)CC4)c3Cl)c2n1`, the melting point worked out at 112 °C. The result for `CC(C)NCC(O)c1ccc(OCc2ccccc2)c(C(N)=O)c1` (configuration not stated) reads 135 to 138 °C; that for `COCN1c2cc(C(=O)OC)ccc2Sc2nccnc21`, 151 to 152 °C; that for `CC[C@H]1c2ccc(C#N)n2-c2cc(F)c(F)cc2N1S(=O)(=O)c1ccc(OS(N)(=O)=O)cc1`, 196 to 201 °C. In turn, `CN(C)CC(O)c1cc(C(F)(F)F)nc2c(C(F)(F)F)cccc12` (configuration not stated) registered a melting point of 80 to 80.7 °C. The result for `Cc1c(C=C2CCc3cc4ccccc4n3C2=O)ncn1C(c1ccccc1)(c1ccccc1)c1ccccc1` reads 214 to 217 °C.

`COC(=O)C1=C(C)Nc2c(c(C)nn2C)C1c1cccc([N+](=O)[O-])c1` (configuration not stated) yielded a melting point of 163 to 166 °C. `C[C@H]1CC[C@@H](OC(=O)c2nc(Cl)n3c2[C@@H]2CCCN2C(=O)c2ccccc2-3)CC1` came in with a melting point of 176 to 177 °C. The figure for `CC1Cc2cccc(S(N)(=O)=O)c2OS1(=O)=O` (configuration not stated) is 185 to 186 °C; for `COC(=O)c1ncnn1C1OC(COC(=O)c2ccccc2)C(OC(=O)c2ccccc2)C1OC(=O)c1ccccc1` (configuration not stated) it is 122 to 124 °C; for `COc1ccc2c(c1)Cc1cc(C(C)C(=O)O)ccc1-2` (configuration not stated) it is 179 to 181 °C.

For `O=C(Nc1ccc(C(=O)N2Cc3ccccc3Cc3ccccc32)cc1)c1ccc(Cl)c(Cl)c1`, the melting point lay within 212 to 215 °C.

For `c1ccn2c(=Nc3nccs3)snc2c1`, the melting point was in the range of 169 to 171 °C. The result for `COc1ccc(CN2c3ncccc3NC(=O)c3cccnc32)cc1` reads 209 to 210 °C.

Consider `Nc1nc(Nc2ccc(N3CCOCC3)cc2)sc1C(=O)c1c(Cl)cccc1Cl`, for which the melting point is 245 to 247 °C. The result for `C=CCOc1ccc(C(=O)c2ccc(Cl)c(S(=O)(=O)N=CN(C)C)c2)c(Cl)c1Cl` reads 141 to 142 °C; that for `CN(C)c1cccc(Oc2cccc(Cl)n2)c1`, 71 to 72 °C; that for `C=C(C)c1cc(CC)n(-c2ccc([N+](=O)[O-])cc2)n1`, 61 to 63 °C. The figure for `CCOC(=O)c1ccc(O)nc1` is 143 to 144 °C; for `O=C1C=CC(OC2CCCCC2)N1` (configuration not stated) it is 65 to 66 °C. The result for `CCn1cc(C=CC(N)=O)c([N+](=O)[O-])n1` reads 210 to 212 °C; that for `c1ccc(-c2cc3ncnc(Nc4ccc(NCc5c[nH]c6ccccc56)cc4)c3s2)cc1`, 259 to 261 °C; that for `CC1=NN(c2ccc(C)c(C)c2)C(=O)C1=NNc1cccc(-c2cccc(P(=O)(O)O)c2)c1O`, 144 to 149 °C. `CCc1nc2c(-c3c(C)cc(C)cc3C)ncnc2n1Cc1ccccc1`: the melting point lay within 121 to 122 °C. The figure for `O=C(NCC1CCN(C[C@H]2COc3ccc(Cl)cc3O2)CC1)c1ccccn1` is 110 to 112 °C; for `CN(Cc1ccc(Cl)c(Cl)c1)C(=O)C1=C(O)C(=O)N(C2CC2)C1` it is 163 to 164 °C; for `CC(C)c1cc(C(=O)Nc2ccc(C(=O)O)s2)oc1C(C)C` it is 227 to 228 °C. The figure for `Cn1nc(-c2cc(S)c(Cl)cc2F)c(Cl)c1C(F)(F)F` is 56 to 58 °C; for `CCOC(=O)CCCCOc1ccc(OCC(F)(F)F)cc1C(=O)NCC1CCCCN1` (configuration not stated) it is 100 to 102 °C.

Compound `CCCCC(CC(=O)Nc1cc(C(N)=O)ccc1C(C)(C)C)c1cc(Cl)c(OCCCS(=O)(=O)CCC)cc1OC` (configuration not stated) displayed a melting point of 144 to 150 °C.

Compound `NNC1=NC2CCCc3cccc(c32)N1` (configuration not stated) had a melting point of 191 to 193 °C. The result for `COc1ccc(C(=O)c2cccc3c2ccn3S(=O)(=O)c2ccc(C)cc2)cc1` reads 135 °C. The figure for `CC(C)(C)OC(=O)N1CCOC(C2=C(C#N)C(c3cccc(C#N)c3Br)c3c[nH]nc3N2)C1` (configuration not stated) is 219 °C; for `C=C(C)C=COc1ccc(C(=O)C=Cc2ccc(OCC(=O)O)c(OC)c2)c(OCC(=O)O)c1` it is more than 200 °C; for `Cc1nc2cc3[nH]c(-c4ccncc4)nc3cc2s1` it is more than 300 °C. The result for `NC(=O)N1CCN(CC(O)COc2ccc(Cl)cc2)CC1` (configuration not stated) reads 193 to 196 °C; that for `CC(=O)N(CCC1CCCCN1CCC(C(N)=O)c1ccccc1Cl)C(C)C` (configuration not stated), 140 to 141 °C; that for `CC1c2ccccc2-c2ccc(F)cc2N1C(=O)c1ccc(O)cc1` (configuration not stated), 134 to 135 °C. Compound `CCOC(=O)Cc1sc(Sc2ccnc(SC)n2)nc1C` yielded a melting point of 68 to 72 °C.

As for `CCc1cc(-c2[nH]c3ccccc3c2C)cc(CC)c1OC`, the melting point lay in the range of 95.7 to 96.1 °C. Regarding `CN(c1ccc(C(=O)O)cc1)c1cc2c3c(c1)CCCC3(C)CCC2`, the melting point lay within 257 to 258 °C. The result for `CC(C)(C)c1ccc(P2Oc3ccccc3-c3ccccc32)cc1` (configuration not stated) reads 90 to 92 °C; that for `O=C(N[C@@H](Cc1ccccc1)C(=O)O)c1cnccn1`, 166 to 169 °C; that for `CC(C)(C)OC(=O)COc1cc(NC(=O)OC(C)(C)C)c([N+](=O)[O-])cc1I`, 103 °C. The result for `CCC(=O)c1c(-c2ccncc2)[nH]c(-c2ccncc2)c1CC` reads 209 to 211 °C; that for `Cc1ccccc1Oc1cccc(CC(=O)O)c1[N+](=O)[O-]`, 158 to 160 °C; that for `COC(=O)NNC(=O)Nc1cc(Cl)cc(Cl)c1`, 246 °C. For `CSCCC(NCc1cc(Br)cc(Br)c1N)C(=O)O` (configuration not stated), the melting point was 212 °C. The result for `O=Cc1cnc2n1CCc1ccccc1C2=C1CCN(CCc2ccc(OCc3ccc4ccccc4n3)cc2)CC1` reads 194 °C. For the compound `O=C(Nc1ccccc1OCc1ccccc1)c1nnnn1Cc1ccccc1`, the melting point lay within 140 to 142 °C.

On to `Cc1nc[nH]c1CSCCNc1cc[nH]c(=O)n1`, for which the melting point was 249 to 251 °C.

In the case of `CN1CCCC1CNC(=O)c1cc(S(=O)(=O)N(C)C)cc2c1OCCO2` (configuration not stated), the melting point is 165 to 166 °C. In the case of `CCCCOc1ccc([N+](=O)[O-])c(CO)c1`, the melting point was in the range of 47 to 49 °C. The result for `C=C1OC(c2ccc(Cl)cc2)=NC1(C)CC` (configuration not stated) reads 55 to 57 °C; that for `CCn1c(Oc2cccc(NC=O)c2)nnc1[C@@H](C)NS(=O)(=O)c1ccc(Cl)c(Cl)c1`, 168 to 170 °C. Take `COC1=C(C(=O)c2ccc(C)cc2)C(c2ccc(OC(F)(F)F)cc2)N(c2ccc(C)nn2)C1=O` (configuration not stated): the melting point was in the range of 206 to 207 °C. The result for `CC(C)c1ccc(C2=C(c3ccc(S(C)(=O)=O)cc3)OC3(CCCC3)C2=O)cc1` reads 139 to 140 °C. The figure for `CCOC(=O)c1[nH]c2cccc(C)c2c1Sc1ccc(Cl)cc1` is 186 to 188 °C; for `O=Cc1c(-c2cccnc2)[nH]c2ccccc12` it is 148 to 150 °C. The figure for `O=C(O)c1ccc(CNCc2cc(Br)ccc2OCc2ccccc2)cc1` is 209 °C; for `CCOC(=O)C=C(C)Nc1ccc(F)c(OCc2ccccc2)c1` it is 79 to 80 °C; for `COc1ccc(C(CN(C)C)C2CCCCC2O)cc1` (configuration not stated) it is 77 to 79 °C.

`Cn1c(COc2ccc(CC3SC(=O)NC3=O)cc2)nc2ccc(Oc3ccc4cccc(NC(=O)Nc5ccc(C(F)(F)F)cc5)c4c3)cc21` (configuration not stated): the melting point is 250 to 254 °C. The result for `CC1(C)CC(NC(=O)ON(Cc2ccccc2)Cc2ccccc2)CC(C)(CNC(=O)ON(Cc2ccccc2)Cc2ccccc2)C1` (configuration not stated) reads 139 to 146 °C. The figure for `O=C1NC(=O)c2c1c(-c1ccccc1Cl)cc1oc3cc(OS(=O)(=O)C(F)(F)F)c(O)cc3c21` is 237 to 240 °C; for `O=C(CSCCN1C(=O)c2ccccc2C1=O)c1ccc(F)cc1` it is 124 to 126 °C. The figure for `Cc1cc(Cl)cc2c1OC(C)(C)C(/C=C/C=C/C=C/C(=O)O)=C2` is 190 to 192 °C; for `CCOc1ccccc1O[C@@H](c1ccccc1)[C@@H](CO[Si](C)(C)C)OS(C)(=O)=O` (racemic) it is 80 to 82.5 °C. `C=Cc1ccc(-c2ccccc2F)cc1` came in with a melting point of 38 °C. The result for `CN(C(=O)OC(C)(C)C)c1cc(Oc2ccc(-n3ccnc3)cc2)ccc1N` reads 115 to 116 °C; that for `O=C(NC1CCCCC1)NS(=O)(=O)c1ccc2c(c1)CCN(C(=O)N1CCCC1)CC2`, 139 to 141 °C; that for `COc1ccc(CCNC(=O)OC(C)(C)C)cc1OC`, 63 to 67 °C. For `Cn1c(=O)c2conc2n(-c2ccccc2)c1=O`, the melting point lay in the range of 219 to 221 °C. The figure for `O=C(CCCC(=O)C(F)(F)F)c1ccc(-c2cccc3ccccc23)cc1` is 79.7 to 82.5 °C; for `c1ccc(Cn2c(N3CCCCC3)nc3ccccc32)cc1` it is 84 to 87 °C; for `CCCCc1nc(C(F)(F)F)c(C(=O)OCC)n1O` it is 77.5 to 80.5 °C.

`CNC(=C[N+](=O)[O-])NCCCCCCCCCCCCNC(=C[N+](=O)[O-])NCCSCc1ccc(CN(C)C)o1` showed a melting point of 78 to 80 °C.
